Data published in PubChem BioAssay (NCI).
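Protocol summary: plate cells (96-well), add compound at 5 concentrations, incubate 48 h, interpolate endpoints linearly. The concentration for full growth arrest is given as TGI.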

Key:
Assay in all cases: NCI-60 cell line screen, 48 h
[1] = system: SK-MEL-28 melanoma
[2] = system: SNB-75 CNS
[3] = system: MDA-MB-231 breast
[4] = system: MDA-N
[5] = system: NCI/ADR-RES ovarian
[6] = system: SW-620 colon
[7] = system: EKVX NSCLC
[8] = system: U251 CNS
[9] = system: HT29 colon
[10] = system: KM12 colon
[11] = system: TK-10 renal
[12] = system: OVCAR-3 ovarian
[13] = system: HCT-116 colon
[14] = system: MALME-3M melanoma
[15] = system: RPMI-8226 leukemia
[16] = system: NCI-H460 lung
[17] = system: M14 melanoma
[18] = system: OVCAR-5 ovarian
[19] = system: MCF7 breast
[20] = system: SK-OV-3 ovarian
[21] = system: SF-295 CNS
[22] = system: SN12C renal
[23] = system: 786-0 renal
[24] = system: NCI-H226 lung
[25] = system: HS 578T breast
[26] = system: SNB-19 CNS
[27] = system: CCRF-CEM leukemia
[28] = system: ACHN renal
[29] = system: A498 renal
[30] = system: HOP-62 NSCLC
[31] = system: NCI-H522 lung
[32] = system: RXF 393 renal
[33] = system: SK-MEL-5 melanoma
[34] = system: UACC-62 melanoma
[35] = system: HL-60(TB) leukemia
[36] = system: SF-268 CNS
[37] = system: A549 NSCLC
[38] = system: HCC-2998 colon
[39] = system: HOP-92 NSCLC
[40] = system: IGROV1 ovarian
[41] = system: SK-MEL-2 melanoma
[42] = system: CAKI-1 renal
[43] = system: PC-3 prostate
[44] = system: T-47D breast
[45] = system: BT-549 breast
[46] = system: HCT-15 colon
[47] = system: UACC-257 melanoma
[48] = system: DU-145 prostate
[49] = system: MDA-MB-435
[50] = system: OVCAR-8 ovarian
[51] = system: NCI-H23 lung
[52] = system: COLO 205 colon
[53] = system: SF-539 CNS
[54] = system: OVCAR-4 ovarian
[55] = system: UO-31 renal
[56] = system: LOX IMVI melanoma
[57] = system: MOLT-4 leukemia
[58] = system: K-562 leukemia

How did the TGI [1] turn out when `N=c1c2c(=S)n(-c3ccccc3)c(=S)n(-c3ccccc3)c2nc(SCCCN2CCCCC2)n1-c1ccccc1` was run?
Its TGI is 5.1 µM.

And the TGI [2]?
The TGI was 3.28 µM.

And the TGI [3]?
The TGI was 3.05 µM.

What about the TGI [4] of the same compound?
The TGI was 3.33 µM.

What about the TGI [5] of the same compound?
Its TGI is 8.97 µM.

And the TGI [6]?
The TGI was 5.15 µM.

What about the TGI [7] of the same compound?
The TGI was 3.47 µM.

And the TGI [8]?
Its TGI is 3.12 µM.

What about the TGI [9] of the same compound?
The TGI was 4.32 µM.

What about the TGI [10] of the same compound?
Its TGI is 3.44 µM.

And the TGI [11]?
Its TGI is 3.08 µM.

And the TGI [12]?
The TGI was 3.02 µM.

What about the TGI [13] of the same compound?
The TGI was 3.1 µM.

And the TGI [14]?
Its TGI is 3.31 µM.

What about the TGI [15] of the same compound?
The TGI was > 100 µM.

What about the TGI [16] of the same compound?
Its TGI is 4.3 µM.

What about the TGI [17] of the same compound?
The TGI was 3.1 µM.

What about the TGI [18] of the same compound?
The TGI was 26.2 µM.

What about the TGI [19] of the same compound?
The TGI was 1.3 µM.

And the TGI [20]?
The TGI was 5.34 µM.

And the TGI [21]?
The TGI was 12.6 µM.

And the TGI [22]?
Its TGI is 3.28 µM.

And the TGI [23]?
Its TGI is 2.28 µM.

What about the TGI [24] of the same compound?
Its TGI is 6.84 µM.

And the TGI [25]?
The TGI was > 100 µM.

And the TGI [26]?
Its TGI is 9.41 µM.

What about the TGI [27] of the same compound?
The TGI was 1.41 µM.

And the TGI [28]?
Its TGI is 3.08 µM.

What about the TGI [29] of the same compound?
Its TGI is 7.11 µM.

And the TGI [30]?
The TGI was 3.38 µM.

What about the TGI [31] of the same compound?
The TGI was 2.54 µM.

And the TGI [32]?
The TGI was 3.26 µM.

What about the TGI [33] of the same compound?
Its TGI is 3.63 µM.

And the TGI [34]?
Its TGI is 3.03 µM.

What about the TGI [35] of the same compound?
The TGI was 3.81 µM.

And the TGI [36]?
The TGI was 3.55 µM.

And the TGI [37]?
Its TGI is 3.78 µM.

What about the TGI [38] of the same compound?
The TGI was 2.82 µM.

And the TGI [39]?
Its TGI is 3.28 µM.

And the TGI [40]?
Its TGI is 3.09 µM.

And the TGI [41]?
The TGI was 3.77 µM.

And the TGI [42]?
The TGI was 3.15 µM.

What about the TGI [43] of the same compound?
Its TGI is 3.03 µM.

What about the TGI [44] of the same compound?
The TGI was 5.78 µM.

What about the TGI [45] of the same compound?
Its TGI is 3.41 µM.

What about the TGI [46] of the same compound?
The TGI was 3.23 µM.

And the TGI [47]?
Its TGI is 3.31 µM.

And the TGI [48]?
Its TGI is 3.03 µM.

And the TGI [49]?
Its TGI is 3.14 µM.

And the TGI [50]?
The TGI was 3.36 µM.

And the TGI [51]?
Its TGI is 3.37 µM.

What about the TGI [52] of the same compound?
The TGI was 3.19 µM.

And the TGI [53]?
The TGI was 16.7 µM.

And the TGI [54]?
The TGI was 3.23 µM.

For `COc1ccc2c(c1)/C(=C\c1c(-c3ccccc3)nc3n1CCS3)C(=O)N2`, which TGI [1] is on record?
The TGI was 27.7 µM.

What about the TGI [2] of the same compound?
The TGI was 36.8 µM.

And the TGI [3]?
The TGI was 17.9 µM.

And the TGI [4]?
The TGI was 5.62 µM.

And the TGI [5]?
Its TGI is 35.4 µM.

And the TGI [6]?
Its TGI is 16.3 µM.

What about the TGI [7] of the same compound?
Its TGI is 48 µM.

And the TGI [8]?
Its TGI is 20.3 µM.

What about the TGI [9] of the same compound?
Its TGI is 16 µM.

What about the TGI [55] of the same compound?
Its TGI is 34.2 µM.

And the TGI [10]?
The TGI was 19.6 µM.

And the TGI [11]?
Its TGI is 27.8 µM.

What about the TGI [12] of the same compound?
Its TGI is 15.6 µM.

What about the TGI [13] of the same compound?
The TGI was 18.2 µM.

And the TGI [14]?
The TGI was 30.7 µM.

And the TGI [15]?
The TGI was 32.2 µM.

And the TGI [16]?
The TGI was 14.4 µM.

What about the TGI [17] of the same compound?
Its TGI is 23 µM.

What about the TGI [18] of the same compound?
The TGI was 51.8 µM.

What about the TGI [19] of the same compound?
The TGI was 29 µM.

And the TGI [20]?
Its TGI is 34.5 µM.

What about the TGI [21] of the same compound?
Its TGI is 15.1 µM.

And the TGI [22]?
Its TGI is 27.6 µM.

What about the TGI [56] of the same compound?
Its TGI is 20.6 µM.

What about the TGI [23] of the same compound?
The TGI was 28.6 µM.

What about the TGI [25] of the same compound?
The TGI was 38.7 µM.

What about the TGI [26] of the same compound?
The TGI was > 100 µM.

What about the TGI [27] of the same compound?
Its TGI is 26.9 µM.

What about the TGI [28] of the same compound?
The TGI was 56.8 µM.

What about the TGI [29] of the same compound?
The TGI was 21.3 µM.

What about the TGI [30] of the same compound?
Its TGI is 27.6 µM.

And the TGI [31]?
Its TGI is 24.4 µM.

What about the TGI [32] of the same compound?
The TGI was 34.3 µM.

And the TGI [33]?
The TGI was 17 µM.

And the TGI [34]?
Its TGI is 18.2 µM.

What about the TGI [35] of the same compound?
Its TGI is 11.4 µM.

And the TGI [36]?
The TGI was 28.1 µM.

What about the TGI [57] of the same compound?
The TGI was 16.9 µM.

And the TGI [37]?
The TGI was 55.9 µM.

What about the TGI [38] of the same compound?
The TGI was 22.9 µM.

And the TGI [39]?
Its TGI is 30.8 µM.

What about the TGI [40] of the same compound?
The TGI was 21.4 µM.

And the TGI [41]?
The TGI was 20.2 µM.

What about the TGI [42] of the same compound?
Its TGI is 37.4 µM.

And the TGI [43]?
The TGI was 17.2 µM.

And the TGI [44]?
Its TGI is 61.6 µM.

What about the TGI [45] of the same compound?
Its TGI is 32.7 µM.

And the TGI [46]?
Its TGI is 40.6 µM.

And the TGI [47]?
The TGI was 27.4 µM.

And the TGI [48]?
The TGI was 60 µM.

What about the TGI [49] of the same compound?
The TGI was 7.19 µM.

And the TGI [58]?
The TGI was 17 µM.

And the TGI [50]?
Its TGI is 47.5 µM.

What about the TGI [51] of the same compound?
The TGI was 33.4 µM.

And the TGI [52]?
The TGI was 11.2 µM.

What about the TGI [53] of the same compound?
Its TGI is 19.1 µM.
